Measurements published in US9725445B2, “Cycloalkyl nitrile pyrazolo pyridones as Janus kinase inhibitors” (Merck Sharp & Dohme Corp., priority 2013, dated 2017).

Assays:
JAK1 = JAK1 (Homo sapiens (Human), UniProt P23458); experiment: Jak biochemical HTRF assay, JAK1; conditions: HTRF biochemical assay, recombinant GST-tagged catalytic domain; read-out: JAK1 IC50
JAK2 = JAK2 (Homo sapiens (Human), UniProt O60674); experiment: Jak biochemical HTRF assay, JAK2; conditions: HTRF biochemical assay, recombinant GST-tagged catalytic domain; read-out: JAK2 IC50
JAK2, sequence (O60674 849-1124): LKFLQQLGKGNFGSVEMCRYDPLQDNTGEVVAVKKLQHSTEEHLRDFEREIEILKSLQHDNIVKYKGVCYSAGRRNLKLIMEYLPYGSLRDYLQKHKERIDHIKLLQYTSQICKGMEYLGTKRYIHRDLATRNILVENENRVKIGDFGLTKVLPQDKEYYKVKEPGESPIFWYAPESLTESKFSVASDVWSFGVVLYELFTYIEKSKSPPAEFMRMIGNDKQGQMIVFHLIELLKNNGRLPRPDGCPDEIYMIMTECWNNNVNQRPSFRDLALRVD

JAK1, sequence (P23458 875-1153): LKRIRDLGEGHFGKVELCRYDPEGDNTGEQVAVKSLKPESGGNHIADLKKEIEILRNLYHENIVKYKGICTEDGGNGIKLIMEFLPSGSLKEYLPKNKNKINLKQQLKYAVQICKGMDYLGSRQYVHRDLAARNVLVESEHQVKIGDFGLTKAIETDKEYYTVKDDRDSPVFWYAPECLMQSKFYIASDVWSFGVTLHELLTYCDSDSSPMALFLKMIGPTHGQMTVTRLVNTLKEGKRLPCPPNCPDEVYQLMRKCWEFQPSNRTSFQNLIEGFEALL

IC50 (JAK1)	IC50 (JAK2)	Structure (SMILES)
350 pM	6500 pM	CC1(O)CN([C@@H]2CC[C@H](n3nc(Nc4ccc(Cl)cc4)c4c(=O)[nH]ccc43)[C@@H](C#N)C2)C1 [Example 5-21, (1S,2S,5R)-2-(3-((4-chlorophenyl)amino)-4-oxo-4,5-dihydro-1H-pyrazolo[4,3-c]pyridin-1-yl)-5-(3-hydroxy-3-methylazetidin-1-yl)cyclohexanecarbonitrile]
2000 pM	4400 pM	CSCc1cc(Cn2ccnn2)cc(Nc2nn([C@H]3CCCC[C@@H]3C#N)c3cc[nH]c(=O)c23)c1 [Example 3-78, (1S,2S)-2-[3-({3-[(methylsulfanyl)methyl]-5-(1H-1,2,3-triazol-1-ylmethyl)phenyl}amino)-4-oxo-4,5-dihydro-1H-pyrazolo[4,3-c]pyridin-1-yl]cyclohexanecarbonitrile]
60 pM	150 pM	Cc1cc(Nc2nn([C@H]3CCCC[C@@H]3C#N)c3cc[nH]c(=O)c23)ccc1C(C(C)C)n1ccnn1 (single isomer, unassigned) [Example 15-38, (1S,2S)-2-[3-({3-methyl-4-[(1R or 1S)-2-methyl-1-(1H-1,2,3-triazol-1-yl)propyl]phenyl}amino)-4-oxo-4,5-dihydro-1H-pyrazolo[4,3-c]pyridin-1-yl]cyclohexanecarbonitrile]
120 pM	370 pM	CC(C)NS(=O)(=O)c1ccc(Nc2nn([C@H]3CCCC[C@@H]3C#N)c3cc[nH]c(=O)c23)cc1 [Example 3-18, 4-({1-[(1S,2S)-2-cyanocyclohexyl]-4-oxo-4,5-dihydro-1H-pyrazolo[4,3-c]pyridin-3-yl}amino)-N-(1-methylethyl)benzenesulfonamide]
130 pM	840 pM	CC(O)(c1ccc(Nc2nn([C@H]3CCCC[C@@H]3C#N)c3cc[nH]c(=O)c23)cc1)C(F)(F)F (single isomer, unassigned) [Example 15-11, (1S,2S)-2-[4-oxo-3-({4-[(1R or 1S)-2,2,2-trifluoro-1-hydroxy-1-methylethyl]phenyl}amino)-4,5-dihydro-1H-pyrazolo[4,3-c]pyridin-1-yl]cyclohexanecarbonitrile]
56 pM	500 pM	N#C[C@H]1CCC[C@@H]1n1nc(Nc2ccc3c(c2)CN(CC(F)(F)F)S3(=O)=O)c2c(=O)[nH]ccc21 [Example 3-101, (1S,2S)-2-(3-{[1,1-dioxido-2-(2,2,2-trifluoroethyl)-2,3-dihydro-1,2-benzisothiazol-5-yl]amino}-4-oxo-4,5-dihydro-1H-pyrazolo[4,3-c]pyridin-1-yl)cyclopentanecarbonitrile]
1300 pM	1700 pM	N#C[C@H]1CCCC[C@@H]1n1nc(Nc2cccc(CN3CCOCC3)c2)c2c(=O)[nH]ccc21 [Example 3-33, (1S,2S)-2-(3-{[3-(morpholin-4-ylmethyl)phenyl]amino}-4-oxo-4,5-dihydro-1H-pyrazolo[4,3-c]pyridin-1-yl)cyclohexanecarbonitrile]
310 pM	860 pM	N#C[C@H]1CCCC[C@@H]1n1nc(Nc2ccc3c(c2)CNC3)c2c(=O)[nH]ccc21 [Example 12-1, (1S,2S)-2-(3-(Isoindolin-5-ylamino)-4-oxo-4,5-dihydro-H-pyrazolo[4,3-c]pyridin-1-yl)cyclohexanecarbonitrile]
56 pM	450 pM	N#C[C@H]1CCCC[C@@H]1n1nc(Nc2ccc3c(c2)CN(C2CCCC2)C3=O)c2c(=O)[nH]ccc21 [Example 3-154, (1S,2S)-2-{3-[(2-cyclopentyl-1-oxo-2,3-dihydro-1H-isoindol-5-yl)amino]-4-oxo-4,5-dihydro-1H-pyrazolo[4,3-c]pyridin-1-yl}cyclohexanecarbonitrile]
59 pM	140 pM	N#C[C@H]1CCCC[C@@H]1n1nc(Nc2ccc3c(c2)CN([C@H]2CC[C@H](C(=O)O)CC2)S3(=O)=O)c2c(=O)[nH]ccc21 [Example 16-3, (1R,4R)-4-(5-((1-((1S,2S)-2-cyanocyclohexyl)-4-oxo-4,5-dihydro-1H-pyrazolo[4,3-c]pyridin-3-yl)amino)-1,1-dioxidobenzo[d]isothiazol-2(3H)-yl)cyclohexanecarboxylic acid]
